Consider 16 molecules from patent publication EP0596406B1, “Imidazo (1,2-a) Pyridines as bradykinin antagonists” (FUJISAWA PHARMACEUTICAL CO., LTD., priority 1992, dated 1994).

Counter-ions that a name gives are not always drawn.

One assay has as its target T1, Bradykinin receptor (Cavia porcellus, UniProt O70526).
T1 construct: The ileum was removed and homogenized in buffer; from tissue; host or cells: guinea pig ileum, crude membrane suspension
T1 sequence (O70526 1-372): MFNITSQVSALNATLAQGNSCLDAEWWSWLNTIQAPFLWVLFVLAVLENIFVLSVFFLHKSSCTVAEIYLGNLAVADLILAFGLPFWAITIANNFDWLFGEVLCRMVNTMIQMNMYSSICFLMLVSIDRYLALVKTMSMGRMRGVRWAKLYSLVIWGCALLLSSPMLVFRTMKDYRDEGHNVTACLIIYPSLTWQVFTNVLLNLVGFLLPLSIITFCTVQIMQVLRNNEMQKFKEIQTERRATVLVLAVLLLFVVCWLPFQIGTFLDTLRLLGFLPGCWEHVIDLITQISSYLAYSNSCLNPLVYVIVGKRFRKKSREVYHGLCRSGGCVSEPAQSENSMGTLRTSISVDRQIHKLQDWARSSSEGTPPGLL
The experiment in a line: ^3H-Bradykinin receptor binding (crude guinea pig ileum membrane). On the set-up: species or system guinea pigs. The conditions noted are these: drug 1 x 10^-5M; ^3H-Bradykinin 0.06 nM; crude ileum membrane suspension; room temperature for 60 minutes; 10 µM. On the procedure:
(a) Crude ileum membrane preparation
Male Hartly strain guinea pigs were sacrificed by decapitation. The ileum was removed and homogenized in buffer (50 mM trimethylaminoethanesulfonic acid (TES), 1 mM 1,10-phenanthroline pH 6.8). The homogenate was centrifuged (1000 xg, 20 minutes) to remove tissue clumps and the supernatant was centrifuges (100,000 xg, 60 minutes) to yield a pellet. The pellet was resuspended in buffer (50 mM TES, 1 mM 1,10-phenanthroline, 140 mg/ℓ bacitracin, 1 mM dithiothreiol, 0.1 % bovine serum albumin pH 6.8) and homogenized with a glass-teflon homogenizer to yield suspension which was referred to as crude membrane suspension. The obtained membrane suspension was stored at -80°C until use.
(b) ^3H-Bradykinin binding to the membrane
The frozen crude membrane suspension was thawed. In binding assays, ^3H-Bradykinin (0.06 nM) and drug (1 x 10^-5M) were incubated with 50 µl of the membrane suspension at room temperature for 60 minutes in a final volume of 250 µl. Separation of receptor-bound from free ^3H-Bradykinin is achieved by immediate filtration under vacuum and washed three times with 5 ml of ice-cold buffer (50 mM Tris-HCl pH 7.5). Non-specific binding was defined as binding in the presence of 0.1 µM Bradykinin. The radioactivity retained on rinsed filters was determined by a liquid-scintillation counter.
Consider `CCCNC(=O)NCC(=O)N(C)c1ccc(Cl)c(COc2cccn3c(Br)c(C)nc23)c1Cl.Cl` [61-(51), 3-Bromo-8-[2,6-dichloro-3-[N-(N'-n-propylureidoacetyl)-N-methylamino]benzyloxy]-2-methylimidazo[1,2-a]pyridine hydrochloride], for which the “Inhibition % of ^3H-Bradykinin binding (concentration : 1 x 10^-5M)” value is reported as 100%. `Cc1nc2c(OCc3c(Cl)ccc(N(C)C(=O)CNC(=O)Nc4cccnc4)c3Cl)cccn2c1Br.Cl.Cl` [61-(54), 3-Bromo-8-[2,6-dichloro-3-[N-[N'-(3-pyridyl)ureidoacetyl]-N-methylamino]benzyloxy]-2-methylimidazo[1,2-a]pyridine dihydrochloride]: the “Inhibition % of ^3H-Bradykinin binding (concentration : 1 x 10^-5M)” value turned out to be 100%.

The same assay, now with this note: drug 1 x 10^-5M; ^3H-Bradykinin 0.06 nM; crude ileum membrane suspension; room temperature for 60 minutes; read-out: Inhibition % of ^3H-Bradykinin binding (concentration : 1 x 10^-5M).
`CC(=O)N(C)c1ccc(Cl)c(COc2cccn3c(Br)c(C)nc23)c1Cl` [61-(1), 3-Bromo-8-[2,6-dichloro-3-(N-acetyl-N-methylamino)benzyloxy]-2-methylimidazo[1,2-a]pyridine hydrochloride]: the inhibition at 10 µM is 95%. In the case of `CC(=O)NCC(=O)N(C)c1ccc(Cl)c(COc2cccn3c(Br)c(C)nc23)c1Cl` [61-(5), 8-[3-[N-(Acetylglycyl)-N-methylamino]-2,6-dichlorobenzyloxy]-3-bromo-2-methylimidazo[1,2-a]pyridine hydrochloride], the inhibition at 10 µM was determined as 99%. Consider `CCCC(=O)NCC(=O)N(C)c1ccc(Cl)c(COc2cccn3c(Br)c(C)nc23)c1Cl` [61-(7), 3-Bromo-8-[3-[N-(butyrylglycyl)-N-methylamino]-2,6-dichlorobenzyloxy]-2-methylimidazo[1,2-a]pyridine hydrochloride], for which the inhibition at 10 µM came to 100%.

As to `Cc1nc2c(OCc3c(Cl)ccc(N(C)C(=O)CNC(=O)c4ccccc4)c3Cl)cccn2c1Br` [61-(11), 8-[3-[N-(Benzoylglycyl)-N-methylamino]-2,6-dichlorobenzyloxy]-3-bromo-2-methylimidazo[1,2-a]pyridine hydrochloride], the inhibition at 10 µM was determined as 98%. Take `Cc1nc2c(OCc3c(Cl)ccc(N(C)C(=O)CNC(=O)Cc4ccccc4)c3Cl)cccn2c1Br` [61-(13), 3-Bromo-8-[2,6-dichloro-3-[N-(phenylacetylglycyl)-N-methylamino]benzyloxy]-2-methylimidazo[1,2-a]pyridine hydrochloride]: the inhibition at 10 µM came to 98%. Turning to `COCC(=O)NCC(=O)CC(=O)N(C)c1ccc(Cl)c(COc2cccn3c(Br)c(C)nc23)c1Cl` [61-(16), 3-Bromo-8-[2,6-dichloro-3-[N-(methoxyacetylglycyl)acetyl-N-methylamino]benzyloxy]-2-methylimidazo[1,2-a]pyridine hydrochloride], the inhibition at 10 µM came out at 100%. In the case of `CC(=O)NCC(=O)NCC(=O)N(C)c1ccc(Cl)c(COc2cccn3c(Br)c(C)nc23)c1Cl` [61-(18), 8-[3-[N-(Acetylglycylglycyl)-N-methylamino]-2,6-dichlorobenzyloxy]-3-bromo-2-methylimidazo[1,2-a]pyridine hydrochloride], the inhibition at 10 µM amounted to 97%. Regarding `Cc1nc2c(OCc3c(Cl)ccc(N(C)C(=O)CNC(C)C)c3Cl)cccn2c1Br` [61-(23), 3-Bromo-8-[2,6-dichloro-3-[N-(isopropylglycyl)-N-methylamino]benzyloxy]-2-methylimidazo[1,2-a]pyridine dihydrochloride], the inhibition at 10 µM worked out at 100%. For the molecule `CCNC(=O)NCC(=O)N(C)c1ccc(Cl)c(COc2cccn3c(Br)c(C)nc23)c1Cl` [61-(28), 3-Bromo-8-[2,6-dichloro-3-[N-(N'-ethylureidoacetyl)-N-methylamino]benzyloxy]-2-methylimidazo[1,2-a]pyridine hydrochloride], the inhibition at 10 µM is 99%. Still for that read-out and setting: in the case of `Cc1nc2c(OCc3c(Cl)ccc(N(C)C(=O)CNC(=O)CN(C)C)c3Cl)cccn2c1Br` [61-(41), 3-Bromo-8-[2,6-dichloro-3-[N-[(N,N-dimethylglycyl)glycyl]-N-methylamino]benzyloxy]-2-methylimidazo[1,2-a]pyridine dihydrochloride] it was 100%; in that of `Cc1nc2c(OCc3c(Cl)ccc(N(C)C(=O)CNC(=S)Nc4ccccc4)c3Cl)cccn2c1Cl` [Example 47, 3-Chloro-8-[2,6-dichloro-3-[N-(N'-phenylthioureidoacetyl)-N-methylamino]benzyloxy]-2-methylimidazo[1,2-a]pyridine], 100%; in that of `Cc1nc2c(OCc3c(Cl)ccc(N(C)C(=O)CNC(=O)[C@H]4CCCN4)c3Cl)cccn2c1Br` [Example 49, 3-Bromo-8-[2,6-dichloro-3-[N-(D-prolylglycyl)-N-methylamino]benzyloxy]-2-methylimidazo[1,2-a]pyridine dihydrochloride], 100%. Consider `Cc1nc2c(OCc3c(Cl)ccc([N+](=O)[O-])c3Cl)cccn2c1Br` [Example 60, 3-bromo-8-(2,6-dichloro-3-nitrobenzyloxy)-2-methylimidazo[1,2-a]pyridine hydrochloride], for which the inhibition at 10 µM is 100%.

Staying with this assay, now noted: read-out: Inhibition % of ^3H-Bradykinin binding (concentration : 1 x 10^-5M).
For the molecule `Cc1nc2c(OCc3c(Cl)ccc(N(C)C(=O)CNC(=O)Oc4ccc([N+](=O)[O-])cc4)c3Cl)cccn2c1Br` [40-(21), 3-Bromo-8-[2,6-dichloro-3-[N-(4-nitrophenoxycarbonylglycyl)-N-methylamino]benzyloxy]-2-methylimidazo[1,2-a]pyridine], the inhibition at 10 µM amounted to 97%.
